Experimental data: patent publication US20230227477A1, “COMPOUNDS FOR SENSING REACTIVE OXYGEN SPECIES AND METHODS FOR USING THE SAME” (WAKE FOREST UNIVERSITY HEALTH SCIENCES, priority 2020, published 2023)

Legend:
HeLa cells [1] = test: Protective effects on HeLa cells under H2O2-induced oxidative stress (CCK-8 viability); format: cell-based, human
Description: Next, the protective effects of compound RAH393 on cultured HeLa cells which were under oxidative stress were examined. A population of cells (>6×10^6 cells/mL as determined with a hemocytometer) was diluted with FBS-free DMEM:F12-K, 1:1, 1% penicillin-streptomycin, and 1% L-glutamine to give a final concentration of 50,000 cells/mL. To a 96-well plate was added 100 μL of cell media solution resulting in a total of 5 k cells per well. Plates were then incubated at 37° C. in an atmosphere of 5% CO2 and 95% humidified air for 24 h. Confluent cells were then pre-incubated in FBS-free media with compound RAH393 (or compound 5) (200 μM) for 1 h followed by treatment with H2O2 (200 μM) for an additional 1 h incubation period. Control wells with H2O2 alone (200 μM) were also evaluated on the same plate. After a total incubation period of 2 h, cell contents were then replaced with 100 μL of fresh FBS-free media with 10% CCK-8. Cells were then incubated for 3 h at 37° C. and cell viability was assessed by measuring the resulting absorbance at 450 nm using a 96-well plate reader (BioTek SYNERGY-HTX multi-mode reader, Winooski, Vt.).

[2] = Rate of coumarin release from compound 1a with H2O2 (fluorescence, plate reader); format: physicochemical; settings: 20 μM compound 1a, 1000 μM H2O2, PBS pH 7.4, 37° C.
Description: Referring to FIG. 2A, initially appending a coumarin ester to the H2O2-responsive scaffold of compound 1a, it was hypothesized that the release of payload, in response to H2O2, could be monitored via fluorescence spectroscopy while recording the resulting increase in fluorescence intensity upon excitation at 7-hydroxycoumarin's λmax. Therefore, to initially assess the reactivity of the scaffold towards peroxides, compound 1a (20 μM) and H2O2 (1000 μM) was incubated in PBS buffer (pH 7.4) at 37° C. Specifically, immediately prior to use, a 5 mM stock solution of hydrogen peroxide was prepared in freshly degassed 1× PBS buffer (pH 7.4) using reagent grade H2O2 (30% solution). A 200 μM stock solution of probe compound 1a was prepared in 200-proof ethanol. The rate of coumarin release was measured using concentrations of 20 μM compound 1a and 1000 μM H2O2 by adding 30 μL of the probe stock solution, 60 μL of hydrogen peroxide stock solution and 210 μL of PBS buffer (pH 7.4) to each well of a 96 well plate. The plate was inserted into a 96-well plate reader (BioTek SYNERGY-HTX hybrid multi-mode reader, Winooski, Vt.), heated to 37° C., and agitated to ensure homogeneity. The plate was read continuously using a 360/40 nm fluorescence filter and values were recorded as the mean+/−STDEV from three experiments.
To further establish the proposed mechanistic pathway, lactone compound 3 (see FIG. 2A) was isolated and characterized as a definitive byproduct of this transformation. […] Compound 3 was formed as described below.

[3] = Turn-on fluorescence response of compounds 1a, 1b, 1c in PBS buffer alone and with H2O2; format: physicochemical; settings: for turn-on fluorescence response towards H2O2 (in words) / fluorescence (ex: 330 nm, em: 452 nm), in the presence of 1 mM H2O2 / fluorescence (ex: 330 nm, em: 452 nm), PBS Buffer alone: 20 μM probe; for turn-on fluorescence response towards H2O2 (in words): 1 mM H2O2 vs PBS alone, 3 h; for fluorescence (ex: 330 nm, em: 452 nm), in the presence of 1 mM H2O2 / fluorescence (ex: 330 nm, em: 452 nm), PBS Buffer alone: PBS pH 7.4, 37° C., 180 min; for fluorescence (ex: 330 nm, em: 452 nm), PBS Buffer alone: no H2O2
Description: Stock solutions of each probe (compounds 1a, 1b, 1c) at 222.2 μM were prepared in 200-proof ethanol. In addition, a 100 mM hydrogen peroxide stock solution was prepared in freshly degassed 1× PBS buffer (pH 7.4) immediately prior to use. Each reaction vial was prepared using 21.6 mL of PBS buffer, 2160 μL of compound 1a (or compound 1b or 1c) stock solution, and 240 μL of 100 mM hydrogen peroxide stock solution to give final concentrations of 20 μM of compound 1a (or compound 1b or 1c) and 1 mM of hydrogen peroxide. A control sample was prepared using 2160 μL of compound 1a (or 1b or 1c) stock solution in ethanol and diluted with 21.84 mL of freshly degassed 1× PBS buffer to give a final concentration of 20 μM of compound 1a (or 1b or 1c). The reaction and control vials were heated to 37° C. and agitated with a stir bar. At 180 min, 4 mL aliquots were transferred from reaction and control vials to individual quartz cuvettes. Fluorescence measurements (ex: 330 nm, em: 452 nm) were recorded as the mean+/−STDEV from three experiments. Referring to FIG. 3, the results for each of compounds 1a, 1b, and 1c was as follows—(1a): (1) PBS Buffer alone: 3.85+/−0.58; (2) In the presence of 1 mM H2O2: 97.01+/−12.97. (1b): (1) PBS Buffer alone: 0.55+/−0.27; (2) In the presence of 1 mM H2O2: 8.14+/−3.13. (1c): (1) PBS Buffer alone: 102.35+/−0.73; (2) In the presence of 1 mM H2O2: 129.54+/−0.55.

HeLa cells [4] = test: Cytotoxicity in HeLa cells (phosphatase assay); format: cell-based, human; settings: various concentrations, 5 h incubation
Description: First, compound RAH393 and lactone compound 3 were tested for cytotoxicity in HeLa cells. A population of cells (>6×10^6 cells/mL as determined with a hemocytometer) was diluted with FBS-free DMEM:F12-K, 1:1, 1% penicillin-streptomycin, and 1% L-glutamine to give a final concentration of 50,000 cells/mL. To a 96-well plate was added 100 μL of cell media solution resulting in a total of 5 k cells per well. Plates were then incubated at 37° C. in an atmosphere of 5% CO2 and 95% humidified air for 24 h. Fresh culture media (100 μL) was then added to each well of cells resulting in 200 μL of media per well followed by the addition of compound RAH393 or compound 3 at various concentrations (20 mM stock in biological-grade DMSO, resulting in no more than 1% DMSO per well). After incubating for 5 h, a phosphatase assay was used to establish cell viability as follows: Media was removed from each well and replaced with 100 μL of phosphatase solution (100 mg of phosphatase substrate, in 30 mL of 0.1 M NaOAc, pH 5.5, 0.1% Triton X-100 buffer). Following an incubation period of 30 min, 50 μL of 0.10 M NaOH was added to each well and viability was assessed spectrophotometrically at 405 nm using a 96-well plate reader (BioTek SYNERGY-HTX multi-mode reader, Winooski, Vt.). Assays were performed in triplicate and presented as the mean+/−STDEV.

[5] = Persulfide release from compounds 4a and 4b with H2O2 monitored by fluorescence; format: physicochemical; settings: 20 μM compound; for change of relative fluorescence intensity over time with H2O2 (in words): 200 μM H2O2, PBS pH 7.4, 37° C., 3 hours
Description: Referring to FIGS. 6A and 6B, compounds 4a and 4b (20 μM) were exposed to H2O2 (200 μM) in PBS buffer (pH 7.4) at 37° C. and the resulting fluorescence intensity was monitored over a period of 3 hours. Immediately prior to use, a 200 μM stock solutions of compound 4a and compound 4b were prepared in cell-grade dimethylsulfoxide (DMSO), and a 200 μM stock of cetyltrimethylammonium bromide (CTAB) was prepared in PBS buffer (pH 7.4). Next, a 2 mM hydrogen peroxide stock solution was prepared by diluting 30% hydrogen peroxide in freshly degassed PBS Buffer (pH 7.4). 30 μL of compound 4a (or compound 4b) was then added to a 96 well plate and diluted with 90 μL of PBS buffer and 150 μL of the CTAB stock solution. The assay was then initiated by the addition of 30 μL, of the 2 mM hydrogen peroxide stock solution rendering a final concentration of 20 μM for compound 4a (or compound 4b), 200 μM of hydrogen peroxide, and 100 μM of CTAB. The control reactions without peroxide were conducted by adding 30 μL of the 200 μM stock of compound 4a to a 96 well plate and diluting with 120 μL of PBS buffer and 150 μL of 200 μM CTAB to make a final concentration of 20 μM of compound 4a and 100 μM of CTAB. The plate was inserted into a 96-well plate reader (BioTek SYNERGY-HTX multi-mode reader, Winooski, Vt.) heated to 37° C., and agitated to ensure homogeneity. The plate was read continuously using a 360/40 nm fluorescence filter and values were recorded as the mean+/−STDEV from three experiments.

[6] = DNFB trapping of released persulfide, LCMS (validation as ROS-activated persulfide donor); format: physicochemical; settings: 200 μM compound, 1 mM DNFB; for formation of trapped disulfide compound 7 (persulfide release), LCMS: 1 mM H2O2, ammonium bicarbonate buffer, room temperature
Description: Initially, 5 mM stock solutions of compound RAH393, compound 5, and 2,4-dinitrofluorobenzene (DNFB) were prepared in 200-proof ethanol. In addition, a 100 mM stock solution of hydrogen peroxide in ammonium bicarbonate buffer (1 mM, pH 7.0) was prepared immediately prior to use. To a conical vial containing 1500 μL of 1M ammonium bicarbonate was then added 80 μL of the 5 mM stock of compound RAH393 (or control compound 5), 400 μL of the 5 mM DNFB stock, and 20 μL of 100 mM hydrogen peroxide giving a final concentrations of 200 μM compound RAH393 (or compound 5), 1 mM DNFB, and 1 mM H2O2. At the designated timepoints, a 100 μL aliquot of the room-temperature reaction was diluted with 900 μL of HPLC-grade methanol with 0.1% formic acid for analysis. 75 μL of the resultant solution was then injected onto C18 reverse phase column (Agilent Technologies, SB-C18 Analytical HPLC Col. 4.6×150) and eluted with HPLC-grade methanol (0.1% formic acid) and HPLC-grade water (0.1% formic acid) at a flow rate of 200 μL/min using the following gradient: 0-2 min, 90:10 water:methanol; 2-8 min, 40:60 water:methanol; 8-30 min, 10:90 water:methanol; 30-40 min, 5:95 water:methanol. Retention times of lactone compound 3 (25.0 min), compound RAH393 (35.6 min), compound 5 (27.7 min), and DNFB (16.5 min) were independently validated. When this assay was run using compound RAH393, in addition to compound 7 (21.7 min), the tri- and tetrasulfides of N-acetylcysteamine were also present (14.1 min and 16.2 min, respectively), further confirming persulfide release from compound RAH393.

In the case of OO [H2O2, hydrogen peroxide, reference compound], the cell viability (HeLa cells [1]; 200 μM H2O2 alone, 1 hour) is reported as 33%.

With CC(C)(Cc1ccccc1B1OC(C)(C)C(C)(C)O1)C(=O)Oc1ccc2ccc(=O)oc2c1 [compound 1a] the “time at which fluorescence intensity reached a maximum (complete release of coumarin reporter)” value [2] was “roughly 1 h”, the kobs ([2]; pseudo first-order) was 0.024 min⁻¹ and the half-life at 20 μM ([2]; PBS buffer with 1000 μM H2O2, pseudo first-order, read-out: half-life (t1/2) of reaction with H2O2) was 29.3 min. For the same compound, the “turn-on fluorescence response towards H2O2 (in words)” value [3] was “selective turn-on fluorescence response towards H2O2”, the “fluorescence (ex: 330 nm, em: 452 nm), in the presence of 1 mM H2O2” value (“fluorescence … of 1 mM H2O2” for short) [3] was 97.01+/−12.97 and the “fluorescence (ex: 330 nm, em: 452 nm), PBS Buffer alone” value [3] was 3.85+/−0.58.

For CC(C)(Cc1ccccc1)C(=O)Oc1ccc2ccc(=O)oc2c1 [compound 1b], the “turn-on fluorescence response towards H2O2 (in words)” value [3] was “no turn-on response”, the “fluorescence … of 1 mM H2O2” value [3] was 8.14+/−3.13 and the “fluorescence (ex: 330 nm, em: 452 nm), PBS Buffer alone” value [3] was 0.55+/−0.27.

For CC1(C)OB(c2ccccc2CCC(=O)Oc2ccc3ccc(=O)oc3c2)OC1(C)C [compound 1c], the “fluorescence … of 1 mM H2O2” value [3] was 129.54+/−0.55, the “fluorescence (ex: 330 nm, em: 452 nm), PBS Buffer alone” value [3] was 102.35+/−0.73 and the “susceptibility to hydrolysis (in words)” value ([3]; PBS buffer alone, pH 7.4, 37° C.) was “highly susceptible to hydrolysis”.

With CC1(C)Cc2ccccc2OC1=O [compound 3] the “cytotoxicity toward HeLa cells (in words)” value (HeLa cells [4]) was “neither compound RAH393 nor lactone compound 3 were toxic”.

In the case of CC(C)(Cc1ccccc1B1OC(C)(C)C(C)(C)O1)C(=O)SSc1ccccc1C(=O)Oc1ccc2ccc(=O)oc2c1 [compound 4a], the “kobs (pseudo first-order rate constant)” value ([5]; 200 μM H2O2, 100 μM CTAB, PBS pH 7.4, 37° C.) is reported as 0.012 min⁻¹, the “change of relative fluorescence intensity over time with H2O2 (in words)” value [5] is reported as “significantly increase over time” and the “fluorescence profile in PBS buffer alone (in words)” value ([5]; no H2O2, 100 μM CTAB, 37° C.) is reported as “nearly identical fluorescence profile to that of compound 4b”. It also gave a half-life at 20 μM ([5]; PBS buffer with 200 μM H2O2 and 100 μM CTAB, 200 μM H2O2, 100 μM CTAB, PBS pH 7.4, 37° C., pseudo first-order, read-out: half-life of reaction with H2O2 (persulfide release)) of 60.5 min.

In the case of CC(C)(Cc1ccccc1)C(=O)SSc1ccccc1C(=O)Oc1ccc2ccc(=O)oc2c1 [compound 4b], the “change of relative fluorescence intensity over time with H2O2 (in words)” value [5] is reported as “trivial”.

For CC(=O)NCCSSC(=O)C(C)(C)Cc1ccccc1 [compound 5], the “protection against H2O2-induced oxidative stress (in words)” value (HeLa cells [1]; pre-treatment 200 μM compound 1 h, then 200 μM H2O2 1 h) was “no protection” and the “formation of trapped disulfide compound 7 (persulfide release), LCMS” value [6] was “unsuccessful in yielding compound 7”.

For CC(=O)NCCSSC(=O)C(C)(C)Cc1ccccc1B1OC(C)(C)C(C)(C)O1 [compound RAH393], the “increase in cell viability” value (HeLa cells [1]; pre-treatment 200 μM compound 1 h, then 200 μM H2O2 1 h, vs H2O2 alone) was 100%, the “formation of trapped disulfide compound 7 (persulfide release), LCMS” value [6] was “formation of disulfide compound 7 was confirmed” and the “production of lactone compound 3, LCMS (in words)” value ([6]; 1 mM H2O2, over a period of 25 min) was “linear increase in the production of lactone compound 3”. For the same compound, the “cytotoxicity toward HeLa cells (in words)” value (HeLa cells [4]) was “neither compound RAH393 nor lactone compound 3 were toxic”.
